These results are taken from patent US20060079453A1, “Hla binding peptides and their uses” (priority 2002, published 2006).

A word on the IC50: it is the concentration at which inhibition is half-maximal. High values mean weaker potency, low ones greater potency.

Assay in all cases: biochemical
Assay type in all cases: binding

Experiment [1] addresses HLA-DR DRB1*0101 (DR1) (Homo sapiens, UniProt P01903+P01911, A100R/D57E/F55L/F60I/F76Y/I96L/L162R/M171V/P40L/Q125E/R42F/V115G/Y59C). The settings on record: DRB1 *0101.
Experiment [2] deals with HLA-DR DRB1*0301 (DR3) (Homo sapiens, UniProt P01903+P01911, A100K/A102G/A103R/A169T/F55Y/I96L/K41T/L162R/M171V/P40S/Q125H/Q178H/Q39Y/R42S/S66N/T106N/T262R/W38E/Y61H).
HLA-DR DRB1*0301 (DR3), sequence (P01903 26-254 limits assumed, other chains not shown): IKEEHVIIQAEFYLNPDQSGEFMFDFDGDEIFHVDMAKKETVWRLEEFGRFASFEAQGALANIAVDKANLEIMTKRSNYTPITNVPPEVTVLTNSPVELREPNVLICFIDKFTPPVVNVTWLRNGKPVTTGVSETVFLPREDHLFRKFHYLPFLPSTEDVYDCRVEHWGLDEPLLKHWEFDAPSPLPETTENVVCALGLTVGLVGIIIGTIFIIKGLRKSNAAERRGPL
The target of experiment [3] is HLA-DR DRB1*0401 (DR4) (Homo sapiens, UniProt P01903+P01911, A100K/A169T/F76Y/I96L/K127E/L162R/M171V/N62H/P40V/Q125Y/R42H/S133A/S149N/S66Y/V115G/V209L/W38E). The settings on record: DRB1 *0401.
In experiment [4] the target is HLA-DR DRB1*0802 (DR8) (Homo sapiens, UniProt P01903+P01911, A100R/A103L/A169T/F76Y/H45Y/I96F/K41T/L162R/M171V/P40S/Q125H/Q178H/Q39Y/Q99D/R218S/R42G/S66Y/V115G/W38E).
Experiment [5] addresses HLA-DR DRB1*1302 (DR13) (Homo sapiens, UniProt P01903+P01911, A100E/A169T/K41T/L162R/M171V/P40S/Q125H/Q178H/Q39Y/Q99D/R42S/S66N/T262R/V115G/W38E/Y61H). The settings on record: DRBI *1302.
Experiment [6] addresses HLA-DR DRB1*1501 (DR15) (Homo sapiens, UniProt P01903+P01911). The settings on record: DRBI *1501.
The target in experiment [7] is HLA-DR DRB3*0101 (DR52) (Homo sapiens, UniProt P01903+P79483).
Experiment [8] concerns the target HLA-DR DRB4*0101 (DR53) (Homo sapiens, UniProt P01903+P13762, G164S). The following applies: DRB4 *0101.
The target of experiment [9] is HLA-DR DRB5*0101 (DR51) (Homo sapiens, UniProt P01903+Q30154). The settings on record: DRB5 *0101.
Experiment [10] concerns the target HLA-DR DRB1*0701 (DR7) (Homo sapiens, UniProt P01903+P01911, A100R/A102G/A103Q/D57E/D86V/E43K/F76Y/K127E/L162R/M171V/P40G/Q125H/Q99D/R33Q/R42Y/R54Q/S133A/S66F/T210M/V115G/Y107V/Y59L/Y89S). The settings on record: DRB1 *0701.
For experiment [11], the target named is HLA-DR DRB1*1101 (DR11) (Homo sapiens, UniProt P01903+P01911, A100R/A169T/A87E/I96F/K41T/L162R/M171V/P40S/Q125H/Q178H/Q39Y/Q99D/R42S/S66Y/T262R/V115G/W38E). The following applies: DRB1 *1101.
HLA-DR DRB1*1101 (DR11), sequence (P01903 26-254 limits assumed, other chains not shown): as above
The target in experiment [12] is HLA-DR DRB1*0901 (DR9) (Homo sapiens, UniProt P01903+P01911, A100R/A103E/D57H/D86V/F55Y/F60I/F76Y/I96F/K127E/L162R/M171V/P40D/Q125H/Q99R/R33Q/R42F/S133A/S66N/T210M/V115G/W38K/Y107V/Y59G/Y89S). The settings on record: DRB1 *0901.

No end group written: not given here.

HLA-DR DRB1*1302 (DR13), sequence (P01903 26-254 limits assumed, other chains not shown): as above

Turning to `CC(C)C[C@H](NC(=O)[C@@H](NC(=O)CN)C(C)C)C(=O)N[C@H](C(=O)N[C@@H](Cc1c[nH]cn1)C(=O)N1CCC[C@H]1C(=O)N[C@@H](CCC(N)=O)C(=O)N[C@@H](Cc1c[nH]c2ccccc12)C(=O)N[C@H](C(=O)N[C@@H](CC(C)C)C(=O)N[C@H](C(=O)N[C@@H](C)C(=O)N[C@@H](C)C(=O)N[C@@H](Cc1c[nH]cn1)C(=O)N[C@@H](CS)C(=O)O)[C@@H](C)O)C(C)C)C(C)C`, the IC50 in experiment [1] is 87 nM; in experiment [2] it was 21300 nM; in experiment [3], 67 nM; in experiment [4], 1930 nM; in [5], 2430 nM; in [6], 66 nM. The IC50 is over 10700 nM in experiment [7] and 6.2 nM in experiment [8].
As for `CC(C)C[C@H](NC(=O)[C@H](CCC(=O)O)NC(=O)[C@H](CCCCN)NC(=O)[C@H](C)N)C(=O)N[C@@H](CCCCN)C(=O)N[C@@H](Cc1ccccc1)C(=O)N[C@H](C(=O)N[C@H](C(=O)N[C@@H](CC(C)C)C(=O)N[C@H](C(=O)N[C@@H](Cc1ccccc1)C(=O)N[C@@H](CCCNC(=N)N)C(=O)N[C@@H](Cc1c[nH]cn1)C(=O)NCC(=O)N[C@@H](CC(=O)O)C(=O)O)C(C)C)[C@@H](C)O)C(C)C`, the IC50 in [2] amounted to 30000 nM; in experiment [3] it was 783 nM; in experiment [4], 1950 nM; in experiment [5], 824 nM; in experiment [7], 8560 nM; in experiment [8] it was 51 nM. The same compound had a half-inhibitory concentration (IC50) in experiment [9] of 24 nM.
For the compound GNEIFNTSLFEPPPP, the concentration for half-maximal inhibition (IC50) was 20400 nM in experiment [1]; over 20000 nM in [3]; over 35700 nM in experiment [10]; over 163000 nM in [4]; over 40000 nM in experiment [11]; 2800 nM in [5]. For the same compound, the 50% inhibitory concentration (IC50) in experiment [6] is over 91000 nM; in experiment [7], over 13200 nM; in experiment [8] it was 835 nM; in [9], over 200000 nM.
Take `CC[C@H](C)[C@H](NC(=O)CNC(=O)[C@H](Cc1ccc(O)cc1)NC(=O)[C@H](CC(C)C)NC(=O)[C@H](CO)NC(=O)[C@H](CC(C)C)NC(=O)[C@H](CC(C)C)NC(=O)[C@H](CO)NC(=O)[C@H](CC(C)C)NC(=O)[C@H](CCC(=O)O)NC(=O)[C@H](CO)NC(=O)[C@H](CC(C)C)NC(=O)[C@H](CCC(=O)O)NC(=O)[C@H](CCCNC(=N)N)NC(=O)[C@@H](N)CC(C)C)C(=O)O`: the half-inhibitory concentration (IC50) was 655 nM in experiment [1]; 371 nM in experiment [3]; 4010 nM in experiment [10]; 9370 nM in experiment [4]; 6960 nM in [11]; 3220 nM in experiment [5]. Also, the IC50 in experiment [6] was 235 nM; in [7], over 15000 nM; in experiment [8] it was 544 nM; in experiment [9], 5180 nM.
For RNFYVINRLTGYLRN, the half-maximal inhibitory concentration (IC50) was found to be 1.7 nM in [1]; 2200 nM in [2]; 219 nM in experiment [3]; 527 nM in experiment [10]; 7600 nM in experiment [12]; 55 nM in [11]. For the same compound, the 50% inhibitory concentration (IC50) in experiment [5] was 9.4 nM; in experiment [6] it was 18 nM; in [7] it was 689 nM; in experiment [9], 5.6 nM.
As to `CC[C@H](C)[C@H](N)C(=O)N[C@@H](Cc1ccc(O)cc1)C(=O)N[C@@H](CO)C(=O)N[C@H](C(=O)N[C@@H](CO)C(=O)N[C@@H](CCSC)C(=O)N[C@@H](CCCCN)C(=O)N[C@@H](Cc1c[nH]cn1)C(=O)N1CCC[C@H]1C(=O)N[C@@H](CCC(N)=O)C(=O)N[C@@H](CCC(=O)O)C(=O)N[C@@H](CCSC)C(=O)N[C@@H](CCCCN)C(=O)N[C@H](C(=O)N[C@@H](Cc1ccc(O)cc1)C(=O)O)[C@@H](C)O)[C@@H](C)CC`, the IC50 in experiment [1] is 8450 nM; in experiment [3], 16000 nM; in experiment [4], 1360 nM; in experiment [11], 213 nM; in experiment [5], over 35000 nM; in [7], over 21900 nM. The IC50 in [8] was 5360 nM; in experiment [9], 2590 nM.
For the compound LLYTFRKDMDKVETF, the IC50 in experiment [1] is over 18000 nM; in experiment [2], 23900 nM; in experiment [3], 10600 nM; in [10], 53400 nM; in [12], over 59500 nM; in experiment [11], 7900 nM. In addition, the figures for the half-maximal inhibitory concentration (IC50) in experiment [5], in [6] and in [7] were over 14500 nM, 886 nM and 941 nM, respectively.
ADKIYSISMKHPQEM: the half-maximal inhibitory concentration (IC50) is 5310 nM in experiment [3]; 4100 nM in experiment [10]; 1140 nM in experiment [4]; 4960 nM in experiment [5]; 8270 nM in experiment [6]; over 21900 nM in experiment [7]. Also, in experiment [8], it took 3550 nM to reach half-maximal inhibition (IC50).
In the case of `CC[C@H](C)[C@H](NC(=O)[C@H](Cc1c[nH]c2ccccc12)NC(=O)[C@@H](NC(=O)[C@@H](N)C(C)C)[C@@H](C)O)C(=O)NCC(=O)N[C@@H](C)C(=O)N[C@@H](C)C(=O)N1CCC[C@H]1C(=O)N[C@@H](CC(C)C)C(=O)N[C@H](C(=O)N[C@@H](CC(C)C)C(=O)N[C@@H](CO)C(=O)N[C@@H](CCCNC(=N)N)C(=O)N[C@H](C(=O)N[C@H](C(=O)O)C(C)C)[C@@H](C)CC)[C@@H](C)CC`, the IC50 in experiment [1] was 8.1 nM; in experiment [2] it was over 81800 nM; in experiment [3], 8000 nM; in experiment [10] it was 195 nM; in experiment [12], 82 nM; in experiment [11] it was 1780 nM. Besides, the values for the concentration for half-maximal inhibition (IC50) in experiment [5], in experiment [7] and in [8] were 2340 nM, over 10700 nM and 88 nM, respectively.
For the compound `CC[C@H](C)[C@H](NC(=O)CNC(=O)[C@H](Cc1ccc(O)cc1)NC(=O)[C@H](CC(C)C)NC(=O)[C@H](CO)NC(=O)[C@H](CC(C)C)NC(=O)[C@H](CC(C)C)NC(=O)[C@H](CO)NC(=O)[C@H](CC(C)C)NC(=O)[C@H](CCC(=O)O)NC(=O)[C@H](CO)NC(=O)[C@@H](N)CC(C)C)C(=O)N[C@@H](Cc1c[nH]cn1)C(=O)N[C@@H](CCCCN)C(=O)N[C@@H](CCC(N)=O)C(=O)O`, the IC50 in experiment [1] was 482 nM; in [2], over 81800 nM; in experiment [3], 1550 nM; in [10], 20900 nM; in [12], 1450 nM; in experiment [11], 1660 nM. For the same compound, the IC50 in experiment [6] is 45 nM; in experiment [7], over 13000 nM; in [8], 79 nM; in experiment [9], 7.3 nM.
With `CC[C@H](C)[C@H](N)C(=O)N[C@@H](CC(C)C)C(=O)N[C@@H](CC(C)C)C(=O)N[C@@H](Cc1c[nH]c2ccccc12)C(=O)N[C@@H](CCC(N)=O)C(=O)N1CCC[C@H]1C(=O)N[C@H](C(=O)N1CCC[C@H]1C(=O)N[C@H](C(=O)N[C@@H](Cc1c[nH]cn1)C(=O)N[C@H](C(=O)N[C@H](C(=O)N1CCC[C@H]1C(=O)N[C@@H](CC(C)C)C(=O)N[C@@H](CO)C(=O)O)C(C)C)[C@@H](C)O)C(C)C)[C@@H](C)CC`, the IC50 was 45 nM in experiment [1]; over 81800 nM in [2]; 170 nM in [3]; 19 nM in experiment [10]; 131 nM in experiment [12]; 2340 nM in experiment [11]. The half-maximal inhibitory concentration (IC50) in experiment [5] is 1110 nM; in [6], 65 nM; in experiment [7], over 8830 nM; in experiment [8], 712 nM; in experiment [9], 28800 nM.
